According to ChEMBL document CHEMBL4732067, “Synthesis and evaluation of new compounds bearing 3-(4-aminopiperidin-1-yl)methyl magnolol scaffold as anticancer agents for the treatment of non-small cell lung cancer via targeting autophagy” (Eur J Med Chem, 2021):
Active and inactive are the calls of the source. The calls are words filed in the database; no cut-off is given here.

How the values were obtained:
NCI-H460 [1] = assay: Induction of cell cycle arrest in human NCI-H460 cells assessed as accumulation at S phase at 5 uM incubated for 24 hrs by propidium iodide staining based flow cytometry (reference value: 29.32 %); assay type: functional
NCI-H460 [2] = assay: Induction of cell cycle arrest in human NCI-H460 cells assessed as accumulation at S phase at 1 uM incubated for 24 hrs by propidium iodide staining based flow cytometry (reference value: 29.32 %); assay type: functional
A549 = assay: Antiproliferative activity against human A549 cells expressing wild type EGFR assessed as reduction in cell viability after 72 hrs by MTT assay; assay type: functional, cell-based; conditions: A549, 72 h
[3] = Toxicity in nude BALB/c mouse xenografted with C26 cells assessed as abnormalities in kidney size and morphology at 50 mg/kg, po administered once daily; assay type: organism-based; conditions: in vivo
[4] = Toxicity in nude BALB/c mouse xenografted with C26 cells assessed as abnormalities in lung size and morphology at 50 mg/kg, po administered once daily; assay type: organism-based; conditions: in vivo
NCI-H460 [5] = assay: Induction of apoptosis in human NCI-H460 cells assessed as late apoptotic cells at 1 uM after 48 hrs by Annexin V-FITC/propidium iodide staining based flow cytometric analysis (reference value: 3.995 %); assay type: functional
NCI-H460 [6] = assay: Induction of cell cycle arrest in human NCI-H460 cells assessed as accumulation at G2/M phase at 0.5 uM incubated for 24 hrs by propidium iodide staining based flow cytometry (reference value: 16.71 %); assay type: functional
NCI-H460 [7] = assay: Antiproliferative activity against human NCI-H460 cells assessed as reduction in cell viability after 72 hrs by MTT assay; assay type: functional, cell-based; conditions: NCI-H460, 72 h
NCI-H460 [8] = assay: Induction of apoptosis in human NCI-H460 cells assessed as late apoptotic cells at 5 uM after 48 hrs by Annexin V-FITC/propidium iodide staining based flow cytometric analysis (reference value: 3.995 %); assay type: functional
[9] = Toxicity in nude BALB/c mouse xenografted with C26 cells assessed as change in body weight at 50 mg/kg, po administered once daily and measured every two days; assay type: organism-based; conditions: in vivo
NCI-H460 [10] = assay: Induction of apoptosis in human NCI-H460 cells assessed as increase in cleaved caspase 3 expression level after 48 hrs by Western blot analysis; assay type: functional, cell-based; conditions: dose 0.5-10 µM
[11] = Metabolic stability in human liver microsomes assessed as intrinsic clearance per gram protein; assay type: ADME, Microsome
NCI-H460 [12] = assay: Induction of apoptosis in human NCI-H460 cells assessed as late apoptotic cells at 2 uM after 48 hrs by Annexin V-FITC/propidium iodide staining based flow cytometric analysis (reference value: 3.995 %); assay type: functional
[13] = Toxicity in nude BALB/c mouse xenografted with C26 cells assessed as abnormalities in liver size and morphology at 50 mg/kg, po administered once daily; assay type: organism-based; conditions: in vivo
NCI-H460 [14] = assay: Induction of autophagy in human NCI-H460 cells assessed as degradation of SQSTM1/p62 at 0.5 to 10 uM measured after 24 hrs by Western blot analysis; assay type: functional, cell-based; conditions: dose 0.5-10 µM
NCI-H460 [15] = assay: Induction of apoptosis in human NCI-H460 cells assessed as viable cells at 1 uM after 48 hrs by Annexin V-FITC/propidium iodide staining based flow cytometric analysis (reference value: 91.528 %); assay type: functional; conditions: read-out: Activity
NCI-H460 [16] = assay: Induction of apoptosis in human NCI-H460 cells assessed as necrotic cells at 5 uM after 48 hrs by Annexin V-FITC/propidium iodide staining based flow cytometric analysis (reference value: 0.498 %); assay type: functional

C=CCc1ccc(OC(C)C)c(-c2cc(CC=C)cc(CN3CCC(N)CC3)c2O)c1 gave an Activity (NCI-H460 [1]) of 22.61%, an Activity (NCI-H460 [2]) of 23.89% and an IC50 (A549) of 910 nM. For the same compound, the Activity [3] was “Non-Toxic”, the Activity [4] was “Non-Toxic” and the Activity (NCI-H460 [5]) was 3.979%. It also gave an Activity (NCI-H460 [6]) of 21.64%, an IC50 (NCI-H460 [7]) of 860 nM and an Activity (NCI-H460 [8]) of 15.76%. The Activity [9] was “Toxic”, the Activity (NCI-H460 [10]) was “Dose-dependent effect” and the CLint [11] was 8.8 mL/min/g. For the same compound, the Activity (NCI-H460 [12]) was 4.926%, the Activity [13] was “Non-Toxic” and the Activity (NCI-H460 [14]) was “Active”. It also gave a viability at 1 µM (NCI-H460 [15]) of 91.1% and an Activity (NCI-H460 [16]) of 0.608%.
